Test results from patent publication US20150072967A1, “TAUROURSODEOXYCHOLIC ACID ATTENTUATES OR ABOLISHES FORMATION AND DEPOSITION OF AMYLOID-B PEPTIDE” (Metselex, Inc., priority 2012, published 2015).

What was measured:
APP/PS1 mice [1] = assay: Aβ immunohistochemistry (6E10), Aβ plaque number in brain; format: in vivo, mouse; conditions: TUDCA-treated APP/PS1 mice vs untreated transgenic mice
Description: (§1) Transgenic mice and TUDCA treatment. APP/PS1 double-transgenic mice express human APP containing the KM670/671NL Swedish double mutation and human PS 1 carrying the L166P mutation under the control of a neuron-specific murine Thy-1 minigene promoter. The two transgenes cosegregate in these mice. APP/PS1 mice were maintained on a C57BL/6J genetic background and genotyped by PCR analysis of genomic DNA from tail biopsies. All animals were kept in standard animal cages under conventional laboratory conditions (12 h light/dark cycle, 22° C.), with ad libitum access to food and water. The animals were randomized for therapy trials and coded, and the operators remained double blinded to which treatment they received, until the completion of data collection. Male APP/PS1 transgenic mice and wild-type littermates were randomly assigned into four groups: TUDCA-treated and untreated (control) APP/PS1 mice and TUDCA-treated and untreated (control) wild-type mice. […]
(§2) Image analysis and semiquantification of immunofluorescence. Images were acquired with an Axioskop fluorescence microscope (Carl Zeiss GmbH, Hamburg, Germany). Semiquantitative analysis of mean fluorescence intensities (MFIs) of GFAP, Iba-I, and MAP2 were performed using NIH Image J software. […] An intensity threshold was set and kept constant for all images analyzed. […]

[2] = tested on: CTGF, A2M, APOE, SORLA expression; assay: Real-time PCR of lipid-metabolism mediators in brain; format: in vivo, mouse
Description: (§3) Transgenic mice and TUDCA treatment. APP/PS1 double-transgenic mice express human APP containing the KM670/671NL Swedish double mutation and human PS 1 carrying the L166P mutation under the control of a neuron-specific murine Thy-1 minigene promoter. The two transgenes cosegregate in these mice. APP/PS1 mice were maintained on a C57BL/6J genetic background and genotyped by PCR analysis of genomic DNA from tail biopsies. All animals were kept in standard animal cages under conventional laboratory conditions (12 h light/dark cycle, 22° C.), with ad libitum access to food and water. The animals were randomized for therapy trials and coded, and the operators remained double blinded to which treatment they received, until the completion of data collection. Male APP/PS1 transgenic mice and wild-type littermates were randomly assigned into four groups: TUDCA-treated and untreated (control) APP/PS1 mice and TUDCA-treated and untreated (control) wild-type mice. Animals were fed a diet of standard laboratory chow supplemented with either 0.4% (wt/wt) TUDCA (sodium salt; Prodotti Chimici e Alimentari S.p.A., Basaluzzo, Italy), or no bile acid, custom made by Harlan (Harlan Laboratories Models, S.L., Barcelona, Spain). Treatment was started when the mice were 2 months old and continued for 6 months. The dose and duration of TUDCA, whose pharmacokinetics has been extensively studied in rodents, were chosen based on pilot studies using APP/PS1 mice and other animal studies.
Real-time PCR. Total RNA from dissected hippocampus and frontal cortex was isolated with TRIzol (Invitrogen), according to the manufacturer's instructions. Samples were homogenized in TRIzol using a motor-driven Bio-vortexer (No 1083; Biospec Products, Bartlesfield, Okla.) and disposable RNAse/DNAse free sterile pestles (Thermo Scientific). […] Real-time quantitative PCR analysis was performed in the 7300 Real-Time PCR System (Applied Biosystems, Foster City, Calif., USA), using SYBR Green PCR master mix (Fermentas International Inc., Glen Burnie, Md., USA). Triplicate reactions were run per sample. The expression levels relative to GAPDH were calculated using the ΔΔCt method. TUDCA-untreated wild-type mice were used as the calibrator. The n-fold change in expression was obtained using the formula: 2^−ΔΔCt.

APP/PS1 mice [3] = assay: GFAP immunofluorescence (activated astrocytes); format: in vivo, mouse; conditions: hippocampus and frontal cortex; TUDCA-treated APP/PS1 mice; p<0.05
Description: as §1, §2

γ-secretase = γ-secretase activity / APP processing by immunoblot of APP-CTFs and total Aβ; format: in vivo, mouse; conditions: brain tissue
Description: as §3
γ-secretase activity. Assessment of γ-secretase activity was performed by detection of the ˜7 KDa carboxyl terminal fragment (CTF)-γ cleavage product of APP. Briefly, 60 μg of total protein extracts were resolved electrophoretically in 10-20% Tris-Tricine gels (BioRad), and CTF-γ (and CTF-β) identified using an anti-APP, C-terminal rabbit polyclonal antibody (Sigma-Aldrich; 1:2000). After stripping, membranes were incubated with the primary mouse monoclonal antibody reactive to Aβ (6E10; Signet; 1:1000) to detect total Aβ peptide. Immunoreactivities were visualized as described above.

[4] = cited from earlier work
APP/PS1 mice [5] = assay: Thioflavin T staining of amyloid plaque burden in brain sections; format: in vivo, mouse
Description: Transgenic mice and TUDCA treatment. APP/PS1 double-transgenic mice express human APP containing the KM670/671NL Swedish double mutation and human PS 1 carrying the L166P mutation under the control of a neuron-specific murine Thy-1 minigene promoter. The two transgenes cosegregate in these mice. APP/PS1 mice were maintained on a C57BL/6J genetic background and genotyped by PCR analysis of genomic DNA from tail biopsies. All animals were kept in standard animal cages under conventional laboratory conditions (12 h light/dark cycle, 22° C.), with ad libitum access to food and water. […]
Image analysis and semiquantification of immunofluorescence. Images were acquired with an Axioskop fluorescence microscope (Carl Zeiss GmbH, Hamburg, Germany). Semiquantitative analysis of mean fluorescence intensities (MFIs) of GFAP, Iba-I, and MAP2 were performed using NIH Image J software. […] An intensity threshold was set and kept constant for all images analyzed. MFI per square millimeter area was calculated by dividing the MFI units by the area of outlined regions and is presented as a bar graph. The total number of thioflavin- and Aβ-positive plaques in the hippocampus and frontal cortex was counted and presented as plaque number per square millimeter.

APP/PS1 mice [6] = assay: Iba-I immunostaining (activated microglia); format: in vivo, mouse
Description: as §1
(§4) Image analysis and semiquantification of immunofluorescence. Images were acquired with an Axioskop fluorescence microscope (Carl Zeiss GmbH, Hamburg, Germany). Semiquantitative analysis of mean fluorescence intensities (MFIs) of GFAP, Iba-I, and MAP2 were performed using NIH Image J software. […]

APP/PS1 mice [7] = assay: MAP2 immunoreactivity (neuronal integrity); format: in vivo, mouse
Description: as §1, §4

APP/PS1 mice [8] = assay: Sandwich ELISA of Aβ1-40 and Aβ1-42 in brain extracts; format: in vivo, mouse; conditions: hippocampus and frontal cortex of APP/PS1 mice; p<0.01
Description: as §1
Sandwich ELISA. […] Total Aβ1-40 or Aβ1-42 content was measured by sandwich ELISA (Millipore) according to the manufacturer's instructions. Values were normalized to the respective total protein concentration and expressed as % of wild-type control.

APP/PS1 mice [9] = assay: Recognition, spatial and contextual fear memory; format: in vivo, mouse; conditions: transgenic mice vs control transgenic mice
Description: as §3, with “The dose and duration of TUDCA, whose pharmacokinetics has been extensively studied in rodents, were chosen based on pilot studies using APP/PS1 mice and other animal studies.” left out

hepatocytes = conditions: DNA microarray; cited from earlier work
[10] = APP/PS1 mice hippocampus, p<0.05
[11] = TUDCA-treated APP/PS1 mice vs control transgenic mice

Question: For `C[C@H](CCC(=O)NCCS(=O)(=O)O)[C@H]1CC[C@H]2[C@@H]3[C@@H](O)C[C@@H]4C[C@H](O)CC[C@]4(C)[C@H]3CC[C@]12C` [TUDCA, tauroursodeoxycholic acid], which “decrease of Aβ plaque number” value (APP/PS1 mice [1]; frontal cortex, p<0.05) is on record?
Answer: 40%

Question: And the “decrease of Aβ plaque number” value (APP/PS1 mice [1]; hippocampus, p<0.01)?
Answer: ~65%

Question: And the “A2M expression (mRNA)” value ([2]; APP/PS1 mice frontal cortex)?
Answer: trend for decreased

Question: What about the “APOE expression (mRNA)” value ([2]; APP/PS1 mice frontal cortex) of the same compound?
Answer: trend for decreased

Question: What about the “CTGF expression (mRNA)” value ([2]; APP/PS1 mice frontal cortex, p<0.05) of the same compound?
Answer: significantly decreased

Question: What about the “SORLA expression (mRNA)” value ([2]; APP/PS1 mice hippocampus) of the same compound?
Answer: slightly increasing

Question: And the “A2M expression (mRNA)” value [2, 10]?
Answer: significantly decreased

Question: What about the “APOE expression (mRNA)” value [2, 10] of the same compound?
Answer: significantly decreased

Question: What about the “CTGF expression (mRNA)” value [2, 10] of the same compound?
Answer: significantly decreased

Question: And the GFAP immunoreactivity (APP/PS1 mice [3])?
Answer: decreased

Question: And the CTF-β levels (γ-secretase; TUDCA-fed transgenic mice vs control transgenic mice)?
Answer: decreased

Question: And the “total Aβ levels” value (γ-secretase; TUDCA-treated APP/PS1 mice vs control APP/PS1 mice)?
Answer: decreased

Question: And the “full-length APP levels” value (γ-secretase; [11])?
Answer: remained unchanged

Question: What about the “production of CTF-γ” value (γ-secretase; [11]) of the same compound?
Answer: decrease

Question: And the oral bioavailability [4]?
Answer: orally bioavailable

Question: And the “amyloid deposits (thioflavin staining)” value (APP/PS1 mice [5]; TUDCA-treated wild-type mice)?
Answer: absent

Question: What about the thioflavin plaque number (APP/PS1 mice [5]; hippocampus and frontal cortex, APP/PS1 mice fed 0.4% (wt/wt) TUDCA for 6 months vs control transgenic mice, p<0.01) of the same compound?
Answer: marked reduction

Question: What about the Iba-I immunoreactivity (APP/PS1 mice [6]; TUDCA-treated APP/PS1 mice relative to control APP/PS1 mice, p<0.05) of the same compound?
Answer: significantly less

Question: And the “reactive microglia around amyloid plaques (Iba-I/thioflavin double-staining)” value (APP/PS1 mice [6]; brains of TUDCA-treated APP/PS1 mice vs control APP/PS1 mice)?
Answer: fewer reactive microglia

Question: And the “integrity of the neuronal fibers around amyloid plaques (MAP2/amyloid double staining)” value (APP/PS1 mice [7]; brains of TUDCA-treated APP/PS1 mice)?
Answer: significant improvement

Question: What about the MAP2 immunoreactivity (APP/PS1 mice [7]; hippocampus and frontal cortex of APP/PS1 mice, p<0.05) of the same compound?
Answer: prevented the loss

Question: What about the Aβ1-40 levels (APP/PS1 mice [8]) of the same compound?
Answer: significantly decreased

Question: And the Aβ1-42 levels (APP/PS1 mice [8])?
Answer: significantly decreased

Question: And the “recognition, and spatial and contextual fear memory” value (APP/PS1 mice [9])?
Answer: improved

Question: What about the “downregulation of A2M expression” value (hepatocytes) of the same compound?
Answer: greater than 10 fold

Question: And the “downregulation of CTGF expression” value (hepatocytes)?
Answer: greater than 10 fold
